The values below come from US20260137079A1, “DISPENSER AND METHOD OF USE THEREOF” (priority 2019, published 2026).

This data set in a line: Suppression of recrystallization of actives that are solid at room temperature. The data set is classed as physicochemical. The conditions noted are these: glycol ether solvent with Transfluthrin (TFT).

As for `COCC(C)OCC(C)OC` (stereo not shown) [DMM, Dipropylene glycol Dimethyl Ether], the “effect on recrystallization of actives solid at room temperature” value was “suppress the recrystallization”.
